{"source": "patent US20030113916A1", "about": "“Method for producing somatic embryos of scot pine (p sylvestris)” (priority 2000, published 2003)", "system": "embryogenic cell lines F1, F2-1, F2-2, F2-3 (previously cryopreserved)", "test": "Maturation of somatic embryos on media with different ammonium to nitrate molar ratios and carbon sources", "type": "cell-based, Pinus sylvestris", "conditions": "ABA tested at 20, 35 y 60 μM in previous evaluation", "protocol": "For maturation process is highly relevant the interaction between nitrogen and carbon source, and the type of the carbon source. […] High concentration of abscisic acid has to be added when starting maturation in order to acquire best quality embryos and avoiding precocious germination; high average of conifers protocols ABA concentration varying between 16 μM and 24 μM. However for Pinus genera ABA is required between 60 μM and 100 μM. […] In order to produce gymnosperm mature somatic embryos with normal germination, is required such embryos developing on medium supplemented with high concentration of desiccant compound.\nUnder the evaluation done to produce normal embryos, was utilized between 400 and 600 mg of embryogenic tissue per sample, such amount was dispersed on filter paper as no thin layer, with two washing only with liquid mineral medium and they were exposed only two weeks on medium supplemented with activated charcoal."}
{"smiles": "CC1=CC(=O)CC(C)(C)[C@@]1(O)/C=C/C(C)=C\\C(=O)O", "note": "[ABA, abscisic acid]", "values": [{"measurement": "Effect on maturation of the cell lines", "result": "non effect"}]}
